Source: patent US10897901B2, “Herbicidal composition” (FMC Corporation, priority 2007, dated 2021)

How the values were obtained:
Format in all cases: in vivo
[1] = system: yellow nutsedge (Cyperus esculentusi); test: Example 3 post-emergence greenhouse pot test, nutsedge
Procedure: Test compositions containing sulfentrazone (DISMISS™ Turf Herbicide), quniclorac, (DRIVE® 75 DF Herbicide) or mixture of sulfentrazone and quinclorac in a three to one ratio, prepared as described above, were diluted with water to provide the appropriate test rate concentrations. A nonionic surfactant (0.25%) was added to each test solution.
The test weeds include Red River crabgrass (Digitaria ciliaris) and yellow nutsedge (Cyperus esculentusi).
(§1) For post-emergence testing, three disposable 3 inch square pots for each rate of application of each herbicide were filled with a soil, comprised of peat moss, vermiculite, bark ash, pine bark, limestone and a wetting agent, to which 8 to 10 seeds were planted. The pots were placed in a greenhouse and watered daily, thus allowing the seeds to germinate and the foliage to develop.
(§2) Pots designated for treatment were placed on a conveyor belt and the conveyor belt fed under a spray nozzle mounted about ten inches above the foliage. The spray of herbicidal solution was commenced and once stabilized; the pots were passed under the spray at a speed to receive a coverage equivalent of 30 gallons per acre. The application rates are those shown in Table 3 below for the individual herbicidal solutions and the mixture of sulfentrazone and quinclorac. The post-emergence pots were immediately placed in the green-house and not watered until 24 hours after treatment with the test solution. Thereafter they were regularly watered at ground level. The control of weeds was evaluated in each experimental test from 1 to 22 days after treatment (DAT). The results, shown as an average of the replications, were compared with results observed in untreated control pots in the same tests.
(§3) Percent control was determined by a method similar to the 0 to 100 rating system disclosed in “Research Methods in Weed Science,” 2nd ed., B. Truelove, Ed.; Southern Weed Science Society; Auburn University, Auburn, Ala., 1977.

[2] = system: Blackseed Plantain (Plantago rugelii); test: Example 1 post-emergent turf plot test, plantain; conditions: 0.57 lb ai/acre
Procedure: The experimental design used randomized plots with post-emergent treatment and three replications per test trial. The size of each experimental plot was 4 feet by 6 feet. The application of each test composition was performed with pressurized back-pack sprayers, calibrated to spray 200 gallons per acre. Test compositions containing sulfentrazone (DISMISS™ Turf Herbicide), quniclorac, (FACET® 75 DF herbicide) or a mixture of sulfentrazone and quinclorac in a 1:3 ratio, prepared as described above, were diluted with water to provide the appropriate test rate concentrations.
The control of weeds was evaluated in each experimental plot from 7 to 41 days after treatment (DAT) of each test rate. The results, shown as an average of the replications, were compared with results observed in untreated control plots in the same trials.

[3] = system: Ivyleaf Morningglory (Ipomoea hederacea); test: Example 4 post-emergence greenhouse pot test, morningglory; conditions: 0.25 lb ai/acre
Procedure: (§4) Test compositions containing sulfentrazone (75 DF formulation), quniclorac, (DRIVE® 75 DF Herbicide) or mixtures of sulfentrazone and quinclorac at ratios of 1:1 to 1:5, were diluted with water to provide the appropriate test rate concentrations. A nonionic surfactant (0.25%) was added to each test solution. The test weeds include crabgrass (Digitaria sp), Chickweed (Stellaria media), Hemp Sesbania (Sesbania exaltata), Kochia (Kochia scoparia), Ivyleaf Morningglory (Ipomoea hederacea), Redroot Pigweed (Amaranthus retroflexus) and yellow nutsedge (Cyperus esculentusi).
as §1, with “develop for 22 days, 3 months for Kochia.” for “develop.”
as §2, with “Table 4” for “Table 3”, “from 2” for “from 1”, “to 20” for “to 22”
as §3

crabgrass (Digitaria sp) = test: Example 4 post-emergence greenhouse pot test, crabgrass; conditions: 0.25 lb ai/acre
Procedure: as §4
as §1, with “develop for 22 days, 3 months for Kochia.” for “develop.”
as §2, with “Table 4” for “Table 3”, “from 2” for “from 1”, “to 20” for “to 22”
as §3

SMILES: Cc1nn(-c2cc(NS(C)(=O)=O)c(Cl)cc2Cl)c(=O)n1C(F)F [A, N-[2,4-dichloro-5-[4-(difluoromethyl)-4,5-dihydro-3-methyl-5-oxo-1H-1,2,4-triazol-1-yl]phenyl]methanesulfonamide]
- Percent Control ([1]; 1-5 leaf stage, 7 days old, 0.125 lb ai/acre, 1 DAT): 50%
- Percent Control ([1]; 1-5 leaf stage, 7 days old, 0.125 lb ai/acre, 3 DAT): 50%
- Percent Control ([1]; 1-5 leaf stage, 7 days old, 0.125 lb ai/acre, 7 DAT): 63%
- Percent Control ([1]; 1-5 leaf stage, 7 days old, 0.125 lb ai/acre, 14 DAT): 70%
- Percent Control ([1]; 1-5 leaf stage, 7 days old, 0.125 lb ai/acre, 21 DAT): 67%
- Percent Control ([1]; 1-5 leaf stage, 7 days old, 0.25 lb ai/acre, 1 DAT): 70%
- Percent Control ([1]; 1-5 leaf stage, 7 days old, 0.25 lb ai/acre, 3 DAT): 85%
- Percent Control ([1]; 1-5 leaf stage, 7 days old, 0.25 lb ai/acre, 7 DAT): 77%
- Percent Control ([1]; 1-5 leaf stage, 7 days old, 0.25 lb ai/acre, 14 DAT): 68%
- Percent Control ([1]; 1-5 leaf stage, 7 days old, 0.25 lb ai/acre, 21 DAT): 50%
- Percent Control ([1]; 1-5 leaf stage, 7 days old, 0.375 lb ai/acre, 1 DAT): 75%
- Percent Control ([1]; 1-5 leaf stage, 7 days old, 0.375 lb ai/acre, 3 DAT): 91%
- Percent Control ([1]; 1-5 leaf stage, 7 days old, 0.375 lb ai/acre, 7 DAT): 95%
- Percent Control ([1]; 1-5 leaf stage, 7 days old, 0.375 lb ai/acre, 14 DAT): 73%
- Percent Control ([1]; 1-5 leaf stage, 7 days old, 0.375 lb ai/acre, 21 DAT): 70%
- Percent Control ([1]; 5-7 leaves, cut to 6 cm tall, 28 days old, 0.125 lb ai/acre, 1 DAT): 0%
- Percent Control ([1]; 5-7 leaves, cut to 6 cm tall, 28 days old, 0.125 lb ai/acre, 3 DAT): 80%
- Percent Control ([1]; 5-7 leaves, cut to 6 cm tall, 28 days old, 0.125 lb ai/acre, 7 DAT): 85%
- Percent Control ([1]; 5-7 leaves, cut to 6 cm tall, 28 days old, 0.125 lb ai/acre, 14 DAT): 70%
- Percent Control ([1]; 5-7 leaves, cut to 6 cm tall, 28 days old, 0.125 lb ai/acre, 21 DAT): 60%
- Percent Control ([1]; 5-7 leaves, cut to 6 cm tall, 28 days old, 0.25 lb ai/acre, 1 DAT): 0%
- Percent Control ([1]; 5-7 leaves, cut to 6 cm tall, 28 days old, 0.25 lb ai/acre, 3 DAT): 75%
- Percent Control ([1]; 5-7 leaves, cut to 6 cm tall, 28 days old, 0.25 lb ai/acre, 7 DAT): 80%
- Percent Control ([1]; 5-7 leaves, cut to 6 cm tall, 28 days old, 0.25 lb ai/acre, 14 DAT): 80%
- Percent Control ([1]; 5-7 leaves, cut to 6 cm tall, 28 days old, 0.25 lb ai/acre, 21 DAT): 90%
- Percent Control ([1]; 5-7 leaves, cut to 6 cm tall, 28 days old, 0.375 lb ai/acre, 1 DAT): 0%
- Percent Control ([1]; 5-7 leaves, cut to 6 cm tall, 28 days old, 0.375 lb ai/acre, 3 DAT): 90%
- Percent Control ([1]; 5-7 leaves, cut to 6 cm tall, 28 days old, 0.375 lb ai/acre, 7 DAT): 90%
- Percent Control ([1]; 5-7 leaves, cut to 6 cm tall, 28 days old, 0.375 lb ai/acre, 14 DAT): 90%
- Percent Control ([1]; 5-7 leaves, cut to 6 cm tall, 28 days old, 0.375 lb ai/acre, 21 DAT): 90%
- Percent Control ([2]; 7 DAT): 83%
- Percent Control ([2]; 14 DAT): 88%
- Percent Control ([2]; 21 DAT): 100%
- Percent Control ([2]; 28 DAT): 100%
- Percent Control ([3]; 2 DAT): 60%
- Percent Control ([3]; 7 DAT): 80%
- Percent Control ([3]; 14 DAT): 90%
- Percent Control ([3]; 20 DAT): 99%
- Percent Control (crabgrass (Digitaria sp); 2 DAT): 10%
- Percent Control (crabgrass (Digitaria sp); 7 DAT): 10%
- Percent Control (crabgrass (Digitaria sp); 14 DAT): 5%
- Percent Control (crabgrass (Digitaria sp); 20 DAT): 5%
